US8933016B2, “Metallodrugs having improved pharmacological properties and methods of manufacture and use thereof” (priority 2012, dated 2015)
Converted amounts (≈) assume the structure as drawn. Ends that are not written are not given here. Peptide text beside a SMILES is read from it. * marks the point of attachment. X4 = COCCOCCOCCOCCOCCOCCOCCOCCOCCOCCOCCOCCOCCOCCOCCOCCOCCOCCOCCOCCOCCOCCOCCOCCOCCOCCOCCOCCOCCOCCOCCOCCOCCOCCOCCOCCOCCOCCOCCOCCOCCOCCOCCOCCOCCOCCOCCOCCNC(=O)CCN1C(=O)CC(*)C1=O; X3 = COCCOCCOCCOCCOCCOCCOCCOCCOCCOCCOCCOCCOCCOCCOCCOCCOCCOCCOCCOCCOCCOCCOCCOCCOCCOCCOCCOCCOCCOCCOCCOCCOCCOCCOCCOCCNC(=O)CCN1C(=O)CC(*)C1=O; X2 = COCCOCCOCCOCCOCCOCCOCCOCCOCCOCCOCCOCCOCCOCCOCCOCCOCCOCCOCCOCCOCCOCCOCCOCCNC(=O)CCN1C(=O)CC(*)C1=O; X1 = COCCOCCOCCOCCOCCOCCOCCOCCOCCOCCOCCOCCNC(=O)CCN1C(=O)CC(*)C1=O

What was measured:
[1] = system: Gram+ & Gram−, Fungi, Virus, Parasites, Protozoan, HIV, Cancer cells; conditions: Antimicrobial Peptide Database; cited from earlier work
[2] = system: K. pneumonia, 700603 (Kp); assay type: cell-based; conditions: Mueller Hinton Broth
pUC19 plasmid DNA = experiment: Plasmid DNA cleavage by reactive oxygen species; assay type: biochemical; conditions: 10 μM base pair pUC19, 100 nM M-chelate, 1 mM H2O2, 1 mM ascorbate, pH 7.4
[3] = system: S. pneumoniae, 49619 (Sp); conditions: 49619 (Sp)
[4] = Cytotoxicity toward human Huh7 liver cells
[5] = system: E. coli O157:H7, BAA-1883 (Ec F); conditions: O157:H7
[6] = system: A. baumanii, BAA-747 (Ab); conditions: BAA-747
E. coli, 25922 (Ec) = conditions: 25922 (Ec)

Compound: VDKGSYLPRPTPPRPIYNRN [SEQ ID NO: 58]
- activity against organisms [1]: active against Gram+ & Gram−

Compound: CC(C)C[C@H](NC(=O)[C@H](CCCNC(=N)N)NC(=O)[C@H](CCC(N)=O)NC(=O)[C@H](CCCCN)NC(=O)[C@@H](NC(=O)[C@H](CCCCN)NC(=O)[C@H](CCCNC(=N)N)NC(=O)[C@H](CC(C)C)NC(=O)[C@H](CC(N)=O)NC(=O)[C@H](Cc1ccccc1)NC(=O)[C@H](Cc1ccccc1)NC(=O)[C@H](CC(C)C)NC(=O)[C@H](CCCCN)NC(=O)[C@H](CCCNC(=N)N)NC(=O)[C@H](CCC(N)=O)NC(=O)CNC(=O)[C@H](Cc1c[nH]cn1)NC(=O)CNC(=O)CN)[C@@H](C)O)C(=O)NCC(=O)N[C@@H](Cc1c[nH]c2ccccc12)C(=O)N[C@@H](Cc1ccccc1)C(=O)N[C@@H](CC(N)=O)C(=O)N[C@@H](CCC(N)=O)C(=O)N[C@@H](CS)C(=O)O [PEP 192]
- MIC Kp [2]: 5.3 µM (≈ 16 µg/mL)

Compound: GILAWKWAWWAWRRGGC [SEQ ID NO: 61]
- activity against organisms [1]: active against Gram+ & Gram−, Fungi, Virus, HIV

Compound: ILPWKWPWWPWRRGGC [SEQ ID NO: 64]
- activity against organisms [1]: active against Gram+ & Gram−, Fungi, Virus, HIV

Compound: GVRRFPWWWPFLRR [SEQ ID NO: 54]
- activity against organisms [1]: active against Gram+ & Gram−, Fungi

Compound: VRRFPWWWPFLRRGGC [SEQ ID NO: 66]
- activity against organisms [1]: active against Gram+ & Gram−, Fungi

Compound: GIGKFLHSAGKFGKAFVGEIMKS [SEQ ID NO: 57]
- activity against organisms [1]: active against Gram+ & Gram−, Virus, Fungi, Parasites, Protozoan, HIV

Compound: RRWKIVVIRWRRGGC [SEQ ID NO: 62]
- activity against organisms [1]: active against Gram+ & Gram−

Compound: O=C([O-])CN1CCN(CC(=O)O)CCN(CC(=O)[O-])CCN(CC(=O)O)CC1.[Cu+2] [Cu-DOTA]
- Linear (μM bp) (pUC19 plasmid DNA): 0.09 μM bp
- Nicked (μM bp) (pUC19 plasmid DNA): 1.31 μM bp
- Supercoiled (μM bp) (pUC19 plasmid DNA): 8.59 μM bp

Compound: CC[C@H](C)[C@H](NC(=O)[C@H](CCCCN)NC(=O)[C@H](Cc1c[nH]c2ccccc12)NC(=O)[C@H](CCCNC(=N)N)NC(=O)[C@H](CCCNC(=N)N)NC(=O)[C@H](Cc1c[nH]cn1)NC(=O)CNC(=O)CN)C(=O)N[C@H](C(=O)N[C@H](C(=O)N[C@H](C(=O)N[C@@H](CCCNC(=N)N)C(=O)N[C@@H](Cc1c[nH]c2ccccc12)C(=O)N[C@@H](CCCNC(=N)N)C(=O)N[C@@H](CCCNC(=N)N)C(=O)NCC(=O)NCC(=O)N[C@@H](CSC1CC(=O)N(CCC(=O)NCCOCCOCCOCCOCCOCCOCCOCCOCCOCCOCCOCCOCCOCCOCCOCCOCCOCCOCCOCCOCCOCCOCCOCCOCCOCCOCCOCCOCCOCCOCCOCCOCCOCCOCCOCCOC)C1=O)C(=O)O)[C@@H](C)CC)C(C)C)C(C)C (stereo partly drawn) [PEP 314 PEG 36] (H-GGHRRWKIVVIRWRRGGC(X3)-OH; C-terminus assumed)
- MIC Sp [3]: 8.1 µM (≈ 32.1 µg/mL)
- IC50 [4]: > 200 µM

Compound: FVQWFSKFLGRILGGC [SEQ ID NO: 63]
- activity against organisms [1]: active against Gram+ & Gram−, Virus, Parasites, Protozoan

Compound: GILAWKWAWWAWRR [SEQ ID NO: 55]
- activity against organisms [1]: active against Gram+ & Gram−, Fungi, Virus, HIV

Compound: CC[C@H](C)[C@H](NC(=O)[C@H](Cc1c[nH]cn1)NC(=O)CNC(=O)CN)C(=O)N[C@@H](CCCNC(=N)N)C(=O)N[C@@H](CCCNC(=N)N)C(=O)N[C@H](C(=O)N[C@H](C(=O)N[C@@H](CCCNC(=N)N)C(=O)N[C@@H](CCCCN)C(=O)N[C@H](C(=O)N[C@H](C(=O)N[C@@H](Cc1c[nH]cn1)C(=O)N[C@H](C(=O)N[C@H](C(=O)N[C@@H](CCCCN)C(=O)N[C@@H](CCCCN)C(=O)NCC(=O)NCC(=O)N[C@@H](CSC1CC(=O)N(CCC(=O)NCCOCCOCCOCCOCCOCCOCCOCCOCCOCCOCCOCCOCCOCCOCCOCCOCCOCCOCCOCCOCCOCCOCCOCCOC)C1=O)C(=O)O)[C@@H](C)CC)[C@@H](C)CC)[C@@H](C)CC)[C@@H](C)CC)[C@@H](C)CC)[C@@H](C)CC (stereo partly drawn) [PEP 318 PEG 24] (H-GGHIRRIIRKIIHIIKKGGC(X2)-OH; C-terminus assumed)
- MIC Ec F [5]: 18.2 µM (≈ 63.9 µg/mL)
- IC50 [4]: > 200 µM
- MIC Ab [6]: 9.1 µM (≈ 31.9 µg/mL)
- MIC Ec (E. coli, 25922 (Ec)): 9.1 µM (≈ 31.9 µg/mL)

Compound: GRLARIVVIRVAR [SEQ ID NO: 56]
- activity against organisms [1]: active against Gram+ & Gram−

Compound: Cu-GGHC-Amik fr3: copper complex of GGHC-Amikacin, fraction 3 (also: copper complex, amikacin conjugate, site not given here)
- Linear (μM bp) (pUC19 plasmid DNA): 0.04 μM bp
- Nicked (μM bp) (pUC19 plasmid DNA): 6.46 μM bp
- Supercoiled (μM bp) (pUC19 plasmid DNA): 3.50 μM bp

Compound: GGHGIRRIIRKIIHIIKK-NH2 (C-terminus assumed) [PEP 188, GGHGIRRIIRKIIHIIKK]
- MIC Kp [2]: 1.9 µM

Compound: GIRRIIRKIIHIIKKGGC [SEQ ID NO: 59]
- activity against organisms [1]: active against Gram+ & Gram−, Fungi GVR

Compound: IRRIIRKIIHIIKKGGC [SEQ ID NO: 65]
- activity against organisms [1]: active against Gram+ & Gram−, Fungi

Compound: RFPWWWPFLRRGGC [SEQ ID NO: 60]
- activity against organisms [1]: active against Gram+ & Gram−, Fungi

Compound: GIRRIIRKIIHIIKK [SEQ ID NO: 53]
- activity against organisms [1]: active against Gram+ & Gram−, Fungi

Compound: CC[C@H](C)[C@H](NC(=O)[C@H](CCCCN)NC(=O)[C@H](Cc1c[nH]c2ccccc12)NC(=O)[C@H](CCCNC(=N)N)NC(=O)[C@H](CCCNC(=N)N)NC(=O)[C@H](Cc1c[nH]cn1)NC(=O)CNC(=O)CN)C(=O)N[C@H](C(=O)N[C@H](C(=O)N[C@H](C(=O)N[C@@H](CCCNC(=N)N)C(=O)N[C@@H](Cc1c[nH]c2ccccc12)C(=O)N[C@@H](CCCNC(=N)N)C(=O)N[C@@H](CCCNC(=N)N)C(=O)NCC(=O)NCC(=O)N[C@@H](CSC1CC(=O)N(CCC(=O)NCCOCCOCCOCCOCCOCCOCCOCCOCCOCCOCCOCCOC)C1=O)C(=O)O)[C@@H](C)CC)C(C)C)C(C)C (stereo partly drawn) [PEP 314 PEG 12] (H-GGHRRWKIVVIRWRRGGC(X1)-OH; C-terminus assumed)
- MIC Sp [3]: 11 µM (≈ 31.9 µg/mL)
- MIC Ec F [5]: 11 µM (≈ 31.9 µg/mL)
- MIC Ab [6]: 2.7 µM (≈ 7.84 µg/mL)
- MIC Ec (E. coli, 25922 (Ec)): 11 µM (≈ 31.9 µg/mL)

Compound: CC[C@H](C)[C@H](NC(=O)[C@H](Cc1c[nH]cn1)NC(=O)CNC(=O)CN)C(=O)N[C@@H](CCCNC(=N)N)C(=O)N[C@@H](CCCNC(=N)N)C(=O)N[C@H](C(=O)N[C@H](C(=O)N[C@@H](CCCNC(=N)N)C(=O)N[C@@H](CCCCN)C(=O)N[C@H](C(=O)N[C@H](C(=O)N[C@@H](Cc1c[nH]cn1)C(=O)N[C@H](C(=O)N[C@H](C(=O)N[C@@H](CCCCN)C(=O)N[C@@H](CCCCN)C(=O)NCC(=O)NCC(=O)N[C@@H](CSC1CC(=O)N(CCC(=O)NCCOCCOCCOCCOCCOCCOCCOCCOCCOCCOCCOCCOCCOCCOCCOCCOCCOCCOCCOCCOCCOCCOCCOCCOCCOCCOCCOCCOCCOCCOCCOCCOCCOCCOCCOCCOCCOCCOCCOCCOCCOCCOCCOCCOCCOCCOCCOCCOC)C1=O)C(=O)O)[C@@H](C)CC)[C@@H](C)CC)[C@@H](C)CC)[C@@H](C)CC)[C@@H](C)CC)[C@@H](C)CC (stereo partly drawn) [PEP 318 PEG 48] (H-GGHIRRIIRKIIHIIKKGGC(X4)-OH; C-terminus assumed)
- IC50 [4]: > 200 µM
- MIC Ab [6]: 13.9 µM (≈ 63.5 µg/mL)

Compound: GRRWKIVVIRWRRGGC [SEQ ID NO: 67]
- activity against organisms [1]: active against Gram+ & Gram−

Compound: GGHGVRRFPWWWPFLRR [PEP 189, GGHGVRRFPWWWPFLRR]
- MIC Kp [2]: 7.2 µM

Compound: CC/C(=C(\c1ccccc1)c1ccc(OCCN(C)C)cc1)c1ccccc1 [Tamoxifen, reference compound]
- IC50 [4]: 42 µM

Compound: O=C([O-])CN(CCN(CC(=O)[O-])CC(=O)[O-])CC(=O)[O-].[Fe+3] [Fe-EDTA]
- Linear (μM bp) (pUC19 plasmid DNA): 0.30 μM bp
- Nicked (μM bp) (pUC19 plasmid DNA): 2.44 μM bp
- Supercoiled (μM bp) (pUC19 plasmid DNA): 7.26 μM bp

Compound: NCC(=O)NCC(=O)N[C@@H](Cc1c[nH]cn1)C(=O)N1CCN(c2cc3c(cc2F)c(=O)c(C(=O)O)cn3C2CC2)CC1 [GGH CIPRO]
- MIC Ec F [5]: 8 µM (≈ 4.66 µg/mL)

Compound: CC[C@H](C)[C@H](NC(=O)[C@H](Cc1c[nH]cn1)NC(=O)CNC(=O)CN)C(=O)N[C@@H](CCCNC(=N)N)C(=O)N[C@@H](CCCNC(=N)N)C(=O)N[C@H](C(=O)N[C@H](C(=O)N[C@@H](CCCNC(=N)N)C(=O)N[C@@H](CCCCN)C(=O)N[C@H](C(=O)N[C@H](C(=O)N[C@@H](Cc1c[nH]cn1)C(=O)N[C@H](C(=O)N[C@H](C(=O)N[C@@H](CCCCN)C(=O)N[C@@H](CCCCN)C(=O)NCC(=O)NCC(=O)N[C@@H](CSC1CC(=O)N(CCC(=O)NCCOCCOCCOCCOCCOCCOCCOCCOCCOCCOCCOCCOCCOCCOCCOCCOCCOCCOCCOCCOCCOCCOCCOCCOCCOCCOCCOCCOCCOCCOCCOCCOCCOCCOCCOCCOC)C1=O)C(=O)O)[C@@H](C)CC)[C@@H](C)CC)[C@@H](C)CC)[C@@H](C)CC)[C@@H](C)CC)[C@@H](C)CC (stereo partly drawn) [PEP 318 PEG 36] (H-GGHIRRIIRKIIHIIKKGGC(X3)-OH; C-terminus assumed)
- MIC Ec F [5]: 15.8 µM (≈ 63.8 µg/mL)
- IC50 [4]: > 200 µM
- MIC Ab [6]: 7.9 µM (≈ 31.9 µg/mL)
- MIC Ec (E. coli, 25922 (Ec)): 15.8 µM (≈ 63.8 µg/mL)
